Measured values: ChEMBL document CHEMBL3797191, “Isocoumarins, miraculous natural products blessed with diverse pharmacological activities” (Eur J Med Chem, 2016)
pIC50, pKi: −log10 of the molar value. Converted amounts (≈) assume the structure as drawn. Blank lines part the entries; values can stand above or below the compound they belong to.

Columns and labels:
[1] = test system: HepG2; assay: Cytotoxicity against human HepG2 cells; type: functional, cell-based
[2] = test system: MCF7; assay: Cytotoxicity against human MCF7 cells; type: functional, cell-based
[3] = test system: Echinochloa frumentacea; assay: Growth inhibition of Barnyard millet seeds at 50 uM after 5 days relative to control; type: functional; conditions: 120 h, read-out: GI
[4] = test system: Rattus norvegicus; assay: Anti-ulcer activity in Sprague-Dawley rat stomach assessed as protection against stress-induced gastric ulcer at 25 mg/kg, po pretreated for 30 mins followed by stress measured after 6 hrs relative to control; type: functional
[5] = Therapeutic ratio of LC50 to EC50 for Balanus amphitritea; type: ADME; conditions: amphibalanus amphitrite; read-out: TI
[6] = test system: P388; assay: Cytotoxicity against mouse P388 cells; type: functional, cell-based
[7] = test system: Staphylococcus aureus; assay: Antibacterial activity against Staphylococcus aureus; type: functional
[8] = test system: Tobacco mosaic virus; assay: Antiviral activity against TMV infected in Nicotiana glutinosa leaves assessed as inhibition of lesions at 20 uM pretreated for 30 mins followed by viral infection measured after 3 to 4 days by half-leaf method relative to control; type: functional
[9] = Cytotoxicity against human NB4 cells assessed as reduction in cell viability after 48 hrs by MTT assay; type: functional, cell-based; conditions: NB-4, 48 h
[10] = test system: SH-SY5Y; assay: Cytotoxicity against human SH-SY5Y cells assessed as reduction in cell viability after 48 hrs by MTT assay; type: functional, cell-based
[11] = test system: A549; assay: Cytotoxicity against human A549 cells assessed as reduction in cell viability after 48 hrs by MTT assay; type: functional, cell-based; conditions: A549, 48 h
[12] = Cytotoxicity against human PC3 cells assessed as reduction in cell viability after 48 hrs by MTT assay; type: functional, cell-based; conditions: PC-3, 48 h
[13] = test system: MCF7; assay: Cytotoxicity against human MCF7 cells assessed as reduction in cell viability after 48 hrs by MTT assay; type: functional, cell-based; conditions: MCF7, 48 h
[14] = Antioxidant activity assessed as radical scavenging activity; type: physicochemical
[15] = target: T1, Aromatase (Homo sapiens, UniProt P11511); assay: Inhibition of aromatase (unknown origin)
T1 sequence (P11511 whole entry): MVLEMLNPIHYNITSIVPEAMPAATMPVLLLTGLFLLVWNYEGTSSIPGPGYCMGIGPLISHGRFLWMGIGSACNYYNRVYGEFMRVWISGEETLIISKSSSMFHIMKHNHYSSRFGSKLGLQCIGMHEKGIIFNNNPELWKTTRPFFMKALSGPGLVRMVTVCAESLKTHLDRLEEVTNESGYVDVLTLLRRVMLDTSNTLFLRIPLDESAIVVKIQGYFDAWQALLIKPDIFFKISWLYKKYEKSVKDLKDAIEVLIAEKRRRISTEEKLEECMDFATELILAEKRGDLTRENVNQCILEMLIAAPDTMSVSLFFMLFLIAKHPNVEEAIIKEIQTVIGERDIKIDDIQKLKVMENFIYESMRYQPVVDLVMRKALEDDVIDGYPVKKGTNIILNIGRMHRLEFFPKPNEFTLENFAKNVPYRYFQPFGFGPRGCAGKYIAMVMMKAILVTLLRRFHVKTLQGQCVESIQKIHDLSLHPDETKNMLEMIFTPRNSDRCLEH

[16] = test system: Tobacco mosaic virus; assay: Antiviral activity against TMV assessed as inhibition of viral infection at 20 uM by half-leaf method relative to control; type: functional
[17] = target: T2, Kallikrein-5 (Homo sapiens, UniProt Q9Y337); assay: Competitive inhibition of human kallikrein-5
T2 sequence (Q9Y337 whole entry): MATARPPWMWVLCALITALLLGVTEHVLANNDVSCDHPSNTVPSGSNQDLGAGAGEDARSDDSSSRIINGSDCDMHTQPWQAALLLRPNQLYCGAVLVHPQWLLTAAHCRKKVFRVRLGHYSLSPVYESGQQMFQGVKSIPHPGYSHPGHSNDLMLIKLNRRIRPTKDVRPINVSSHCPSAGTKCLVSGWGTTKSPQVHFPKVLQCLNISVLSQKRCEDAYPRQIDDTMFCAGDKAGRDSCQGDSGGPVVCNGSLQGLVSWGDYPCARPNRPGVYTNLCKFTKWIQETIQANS

[18] = target: Kallikrein-7 (Homo sapiens, UniProt P49862); assay: Competitive inhibition of human kallikrein-7
[19] = test system: MCF7; assay: Cytotoxicity against human MCF7 cells assessed as reduction in cell viability after 3 days by MTT assay; type: functional, cell-based; conditions: MCF7, 72 h
[20] = test system: A549; assay: Cytotoxicity against human A549 cells assessed as reduction in cell viability after 3 days by MTT assay; type: functional, cell-based; conditions: A549, 72 h
[21] = test system: NCI-H187; assay: Cytotoxicity against human NCI-H187 cells; type: functional, cell-based
[22] = test system: KB; assay: Cytotoxicity against human KB cells; type: functional, cell-based
[23] = test system: NCI-H187; assay: Cytotoxicity against human NCI-H187 cells assessed as reduction in cell viability by resazurin microplate assay; type: functional, cell-based
[24] = test system: KB; assay: Cytotoxicity against human KB cells assessed as reduction in cell viability by resazurin microplate assay; type: functional, cell-based

Kallikrein-7, sequence (P49862 whole entry): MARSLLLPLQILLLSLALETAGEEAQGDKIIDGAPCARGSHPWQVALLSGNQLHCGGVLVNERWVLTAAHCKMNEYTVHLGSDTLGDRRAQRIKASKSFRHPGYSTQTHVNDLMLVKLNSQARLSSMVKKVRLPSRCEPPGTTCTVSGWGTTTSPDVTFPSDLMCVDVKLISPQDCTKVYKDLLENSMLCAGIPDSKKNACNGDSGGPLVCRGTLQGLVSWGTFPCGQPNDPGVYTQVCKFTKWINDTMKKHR

Compound: C[C@@H]1Cc2cc(O)c(C=O)c(O)c2C(=O)O1
pIC50 [1]: 5.19
pIC50 [2]: 5.18

Compound: CC(C)C[C@H](NC(=O)C[C@@H](O)[C@H]1O[C@](C)(O)[C@H](C)NC1CC(N)=O)[C@@H]1Cc2cccc(O)c2C(=O)O1 (some centres undefined)
inhibition of growth at 50 µM [3]: 7%

Compound: CC(C)C[C@H](NC(=O)[C@@H](O)[C@@H](O)[C@@H](N)CC(=O)O)[C@@H]1Cc2cccc(O)c2C(=O)O1
Activity [4]: 100%

Compound: CC(C)C[C@H](NC(=O)[C@@H](O)[C@@H](O)[C@@H](N)CC(N)=O)[C@@H]1Cc2cccc(O)c2C(=O)O1
Activity [4]: 72%

Compound: CCCCC[C@H]1OC(=O)c2c(O)c(CC=C(C)C)cc(O)c2[C@H]1OC
selectivity ratio [5]: > 15

Compound: C/C=C/CC[C@H]1OC(=O)c2c(O)c(CC=C(C)C)cc(O)c2[C@H]1OC
selectivity ratio [5]: > 15

MIC [7]: 12 µM (≈ 4.9 µg/mL)
Compound: CC[C@H](N)[C@H](O)[C@H](O)CC(=O)N[C@@H](CC(C)C)[C@@H]1Cc2cccc(O)c2C(=O)O1
pIC50 [6]: 4.82

Compound: CC(C)C[C@H](NC(=O)[C@@H](O)[C@H]1O[C@](C)(O)[C@@]2(C)NC(=O)C[C@@H]1N2)[C@@H]1Cc2cccc(O)c2C(=O)O1
inhibition of growth at 50 µM [3]: 82%

Compound: CC(C)C[C@H](NC(=O)[C@@H](O)[C@H]1OC(=O)C[C@@H]1N)[C@@H]1Cc2cccc(O)c2C(=O)O1
Activity [4]: 83%

Compound: COc1ccc(CCCO)c2cc(CC(C)=O)oc(=O)c12
inhibition at 20 µM [8]: 30.6%
pIC50 [9]: 5.55
pIC50 [10]: 5.55
pIC50 [11]: 5.55
pIC50 [12]: 5.55
pIC50 [13]: 5.55

Compound: CC[C@@H]1Cc2cc(O)cc(O)c2C(=O)O1
pIC50 [1]: 5.19
pIC50 [2]: 5.18

pIC50 [14]: 4.66
pIC50 [15]: 4.91
Compound: C[C@H](O)C/C=C/CCCCC1Cc2cc(O)cc(O)c2C(=O)O1 (some centres undefined)

Compound: CC1(C)CCc2c(cc(O)c3c2CC(CO)OC3=O)O1 (centres undefined)
inhibition at 20 µM [16]: 33.8%

Compound: CCCC1Cc2cc(O)c(Br)c(O)c2C(=O)O1 (centres undefined)
IC50 [6]: 0.19 µg/mL

pKi [17]: 4.64
pKi [18]: 4.91
Compound: COC1=C(c2c(OC)cc3c(c2O)C(=O)C2=C(C[C@H](C)OC2=O)C3=O)C(=O)c2c(O)c3c(c(O)c2C1=O)C[C@H](C)OC3=O

Compound: CC(=O)Cc1cc2c(CCCO)cc(O)cc2c(=O)o1
inhibition at 20 µM [8]: 28.4%
pIC50 [9]: 5.55
pIC50 [10]: 5.55
pIC50 [11]: 5.55
pIC50 [12]: 5.55
pIC50 [13]: 5.55

Compound: COc1cc2c(c3c1OC(C)(C)CC3=O)C[C@@H](C)OC2=O
pIC50 [19]: 5.40
inhibition at 20 µM [16]: 28.6%
pIC50 [20]: 5.42

Compound: COc1cc(OC)c2c(c1CC=C(C)C)C[C@@H](C)OC2=O
pIC50 [19]: 5.40
inhibition at 20 µM [16]: 28.6%
pIC50 [20]: 5.42

Compound: COc1c(O)c(-c2c(O)c(OC)c(O)c3c(=O)oc(C)cc23)c2cc(C)oc(=O)c2c1O
IC50 [21]: 8.31 µg/mL (≈ 18.8 µM)
IC50 [22]: 24.4 µg/mL (≈ 55.2 µM)
IC50 [23]: 8.31 µg/mL (≈ 18.8 µM)
IC50 [24]: 24.4 µg/mL (≈ 55.2 µM)

Compound: Cc1c(O)cc2c(c1O)C(=O)O[C@H](C)C2
pIC50 [1]: 5.19
pIC50 [2]: 5.18

Compound: COc1c(O)cc2c(c1CC=C(C)C)C[C@@H](C)OC2=O
pIC50 [19]: 5.40
inhibition at 20 µM [16]: 28.6%
pIC50 [20]: 5.42

pKi [17]: 4.64
Compound: COc1cc2c(OC)c3cc(C)oc(=O)c3c(O)c2c(O)c1-c1c(OC)cc2c(OC)c3cc(C)oc(=O)c3c(O)c2c1O

Compound: Cc1c(O)cc2c(c1O)C(=O)O[C@H](CO)C2
pIC50 [1]: 5.19
pIC50 [2]: 5.18
